From PubChem BioAssay (NCI)
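The compound was tested at five concentrations on cells cultured in 96-well plates, with a 48-hour exposure period. TGI marks complete inhibition of growth.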

Legend:
Assay in all cases: NCI tumour cell line growth inhibition, 48 h
SF-268 CNS = tested on: SF-268 CNS
NCI-H522 lung = tested on: NCI-H522 lung
HL-60(TB) leukemia = tested on: HL-60(TB) leukemia
MOLT-4 leukemia = tested on: MOLT-4 leukemia
HCT-116 colon = tested on: HCT-116 colon
NCI-H226 lung = tested on: NCI-H226 lung
UACC-62 melanoma = tested on: UACC-62 melanoma
BT-549 breast = tested on: BT-549 breast
K-562 leukemia = tested on: K-562 leukemia
MDA-N = tested on: MDA-N
IGROV1 ovarian = tested on: IGROV1 ovarian
SK-OV-3 ovarian = tested on: SK-OV-3 ovarian
RPMI-8226 leukemia = tested on: RPMI-8226 leukemia
OVCAR-5 ovarian = tested on: OVCAR-5 ovarian
SNB-19 CNS = tested on: SNB-19 CNS
NCI-H460 lung = tested on: NCI-H460 lung
SN12C renal = tested on: SN12C renal
MALME-3M melanoma = tested on: MALME-3M melanoma
CCRF-CEM leukemia = tested on: CCRF-CEM leukemia
HT29 colon = tested on: HT29 colon
EKVX NSCLC = tested on: EKVX NSCLC
KM12 colon = tested on: KM12 colon
SF-295 CNS = tested on: SF-295 CNS
OVCAR-3 ovarian = tested on: OVCAR-3 ovarian
SK-MEL-5 melanoma = tested on: SK-MEL-5 melanoma
MCF7 breast = tested on: MCF7 breast
SW-620 colon = tested on: SW-620 colon
HCT-15 colon = tested on: HCT-15 colon
UACC-257 melanoma = tested on: UACC-257 melanoma
RXF 393 renal = tested on: RXF 393 renal
SK-MEL-28 melanoma = tested on: SK-MEL-28 melanoma
HOP-92 NSCLC = tested on: HOP-92 NSCLC
TK-10 renal = tested on: TK-10 renal
MDA-MB-435 = tested on: MDA-MB-435
NCI-H23 lung = tested on: NCI-H23 lung
A498 renal = tested on: A498 renal
SK-MEL-2 melanoma = tested on: SK-MEL-2 melanoma
SR leukemia = tested on: SR leukemia
U251 CNS = tested on: U251 CNS
UO-31 renal = tested on: UO-31 renal
CAKI-1 renal = tested on: CAKI-1 renal
DU-145 prostate = tested on: DU-145 prostate
HS 578T breast = tested on: HS 578T breast
PC-3 prostate = tested on: PC-3 prostate
COLO 205 colon = tested on: COLO 205 colon
LOX IMVI melanoma = tested on: LOX IMVI melanoma
ACHN renal = tested on: ACHN renal
OVCAR-4 ovarian = tested on: OVCAR-4 ovarian
786-0 renal = tested on: 786-0 renal
HOP-62 NSCLC = tested on: HOP-62 NSCLC
MDA-MB-231 breast = tested on: MDA-MB-231 breast
HCC-2998 colon = tested on: HCC-2998 colon

Compound: O=C1/C(=C/c2ccc(Br)s2)NC(=S)N1c1ccccc1
- TGI (SF-268 CNS): > 100 µM
- TGI (NCI-H522 lung): > 100 µM
- TGI (HL-60(TB) leukemia): > 100 µM
- TGI (MOLT-4 leukemia): > 100 µM
- TGI (HCT-116 colon): > 100 µM
- TGI (NCI-H226 lung): > 100 µM
- TGI (UACC-62 melanoma): > 100 µM
- TGI (BT-549 breast): > 100 µM
- TGI (K-562 leukemia): > 100 µM
- TGI (MDA-N): > 100 µM
- TGI (IGROV1 ovarian): > 100 µM
- TGI (SK-OV-3 ovarian): > 100 µM
- TGI (RPMI-8226 leukemia): 85.1 µM
- TGI (OVCAR-5 ovarian): > 100 µM
- TGI (SNB-19 CNS): > 100 µM
- TGI (NCI-H460 lung): > 100 µM
- TGI (SN12C renal): > 100 µM
- TGI (MALME-3M melanoma): > 100 µM
- TGI (CCRF-CEM leukemia): > 100 µM
- TGI (HT29 colon): > 100 µM
- TGI (EKVX NSCLC): > 100 µM
- TGI (KM12 colon): > 100 µM
- TGI (SF-295 CNS): > 100 µM
- TGI (OVCAR-3 ovarian): > 100 µM
- TGI (SK-MEL-5 melanoma): > 100 µM
- TGI (MCF7 breast): > 100 µM
- TGI (SW-620 colon): > 100 µM
- TGI (HCT-15 colon): > 100 µM
- TGI (UACC-257 melanoma): > 100 µM
- TGI (RXF 393 renal): > 100 µM
- TGI (SK-MEL-28 melanoma): > 100 µM
- TGI (HOP-92 NSCLC): 71.6 µM
- TGI (TK-10 renal): > 100 µM
- TGI (MDA-MB-435): > 100 µM
- TGI (NCI-H23 lung): > 100 µM
- TGI (A498 renal): > 100 µM
- TGI (SK-MEL-2 melanoma): > 100 µM
- TGI (SR leukemia): > 100 µM
- TGI (U251 CNS): > 100 µM
- TGI (UO-31 renal): > 100 µM
- TGI (CAKI-1 renal): > 100 µM
- TGI (DU-145 prostate): > 100 µM
- TGI (HS 578T breast): > 100 µM
- TGI (PC-3 prostate): > 100 µM
- TGI (COLO 205 colon): > 100 µM
- TGI (LOX IMVI melanoma): > 100 µM
- TGI (ACHN renal): > 100 µM
- TGI (OVCAR-4 ovarian): > 100 µM
- TGI (786-0 renal): > 100 µM
- TGI (HOP-62 NSCLC): > 100 µM
- TGI (MDA-MB-231 breast): > 100 µM
- TGI (HCC-2998 colon): > 100 µM
